Patent publication US10646595B2, “Porphyrin compounds and their use as MRI contrast agents” (THE GOVERNING COUNCIL OF THE UNIVERSITY OF TORONTO, priority 2013, dated 2020)
Read-outs that look alike come from different tables or passages of the source.

How the values were obtained:
[1] = In vivo T1-weighted MRI in rats on 3T clinical scanner after intravenous injection; conditions: 0.05 mmol Mn/kg i.v.
Text: (§1) MnPs MnTCP and (MnTPPS3)2 were administrated in rats and submitted for MRI studies on a 3T clinical scanner (Philips Achieva), with MnTPPS as a reference, and found to be efficient T1 CAs for in vivo applications, MnTCP and (MnTPPS3)2. A relatively low dose, 0.05 mmol Mn/kg (typical dose for clinical Gd-based CAs is ˜0.1 mmol Gd/kg) was chosen based on the in vitro relaxivity values described above.
(§2) The desired rapid clearance of MnTCP via renal filtration was further confirmed by urine sample analysis. The characteristic reddish color of MnPs was clearly visible by eye in the urine samples. The concentrations of MnPs can be accurately quantified by both UV-vis and Mn atomic absorption (Mn AA) spectroscopic analyses. Very high concentrations of MnP were detected in urine 60 minutes (11.7 μM) after injection. […] Moreover, a significant amount of MnTPPS (1.12 μM) could still be detected in urine 24 hours post-injection. […] The exclusion of the renal metabolic pathway for (MnTPPS3)2 was further confirmed by urine sample analysis.

[2] = T1 and T2 relaxivities and phantom images at 3 T on clinical MRI scanner; format: physicochemical; conditions: for r1 (T1 relaxivity): clinical MRI scanner, inversion-recovery spin-echo, 25° C. per FIG. 3
Experimental: (A) A schematic diagram of how the solutions are placed. (B) The corresponding phantom images produced by the 3 T scanner.
Relaxivities of MnPs at 3 T were measured on a clinical MRI scanner (Philips Achieva). Each of the four CAs were prepared in a series of increasing concentrations, 0, 0.05, 0.1, 0.2 and 0.5 mM, and imaged using an inversion-recovery spin-echo pulse sequence with varied inversion times TI and a multi-echo spin-echo sequence with varied echo times TE. […] The r1 values in Table 1 were derived by calculating T1 relaxation times from the inversion-recovery images and then linearly fitting the T1 relaxation rates to obtain the relaxivity r1. T2 relaxivities of the MnPs were also calculated and are listed in […]

[3] = 37° C., cited from earlier work
[4] = Urine sample analysis by UV-vis and Mn atomic absorption after injection in rats; format: in vivo; conditions: 0.05 mmol Mn/kg i.v.
Text: as §1, §2

[5] = NMRD profiles, field-dependent T1 relaxivity, field cycling NMR relaxometer 0 to 1 T; format: physicochemical; conditions: for T1 relaxivity per Mn(III) or Gd(III), NMRD comparison: fields above ~0.2 T, compared among MnTPPS, MnTCP, (MnTPPS3)2 and Gd-DTPA
Experimental: T1 relaxivity values were measured per Mn(III) or Gd(III) up to 1 T.

MnTPPS [reference compound]
liver enhancement ([1]; 3 T MRI): clear liver enhancement
persistence of kidney T1 enhancement signal ([1]; 3 T MRI): still visible in the image 1 day post-injection
r1 (T1 relaxivity) [2]: 8.83 mM⁻¹ s⁻¹
relaxivity plateau ([3]; up to 1 T): > 10 mM⁻¹ s⁻¹
field of relaxivity peak [3]: 0.2 T
concentration in urine ([4]; 60 minutes after injection): 4.41 µM
concentration in urine ([4]; 24 hours post-injection): 1.12 µM

O=S(=O)([O-])c1ccc(C2=C3C=CC4=[N+]3[Mn]35[n]6c2ccc6C(c2ccc(S(=O)(=O)[O-])cc2)=C2C=CC(=[N+]23)C(c2ccc(S(=O)(=O)[O-])cc2)=c2ccc([n]25)=C4c2ccc(-c3ccc(C4=C5C=CC6=[N+]5[Mn]57[n]8c4ccc8C(c4ccc(S(=O)(=O)[O-])cc4)=C4C=CC(=[N+]45)C(c4ccc(S(=O)(=O)[O-])cc4)=c4ccc([n]47)=C6c4ccc(S(=O)(=O)[O-])cc4)cc3)cc2)cc1 (centres unmarked) [(MnTPPS3)2]
enhancement in the blood vessels and in the heart ([1]; 3 T MRI): relatively long-lasting enhancement
liver enhancement ([1]; 3 T MRI): significant liver enhancement
bladder enhancement ([1]; over the three days of the experimental period): no bladder enhancement was detected
field of relaxivity peak ([5]; NMRD profile): ~1 T
T1 relaxivity per Mn(III) or Gd(III), NMRD comparison [5]: highest relaxivity per Mn
signal intensity on T1 weighted phantom images ([2]; 25° C., samples at the same concentration): highest signal intensity
r1 (T1 relaxivity) [2]: 14.1 mM⁻¹ s⁻¹
MnP signal in urine by Mn-AA or UV-vis ([4]; over the 72 hour post-injection period): No MnP signal was found

O=C(O)c1c2nc(c(C(=O)O)c3ccc([n-]3)c(C(=O)O)c3nc(c(C(=O)O)c4ccc1[n-]4)C=C3)C=C2.[Cl-].[Mn+3] [MnTCP, [5,10,15,20-tetrakis(carboxy)porphyrinato]manganese(III) Chloride]
time for relocation of majority of kidney enhancement into the bladder ([1]; 3 T MRI): within an hour
time to accumulation in the kidney ([1]; post injection, 3 T MRI): ≤ 10 min
T1 relaxivity, NMRD comparison ([5]; at clinical field strengths): lower relaxivity than MnTPPS
T1 relaxivity per Mn(III) or Gd(III), NMRD comparison [5]: substantially higher than Gd-DTPA
relaxivity compared with Gd-DTPA [2]: significantly higher relaxivity than Gd-DTPA
r1 (T1 relaxivity) [2]: 7.90 mM⁻¹ s⁻¹
concentration in urine ([4]; 60 minutes after injection): 11.7 µM
presence in urine sample ([4]; about 24 h post injection): Absence
